Laboratory results as given in patent US6794386B2, “β-amino acid compounds as integrin antagonists” (Bayer Aktiengesellschaft, priority 2000, dated 2004).
Read-outs that look alike come from different tables or passages of the source.

Target: T1, VLA-4 (Homo sapiens, UniProt P05556+P13612)
T1 construct: host or cells: Jurkat clone E6-1
Assay: Adhesion of Jurkat cells to immobilized VCAM-1 (domains 1-3)
Type: cell-based
Parameters: scale not given here
Details: adhesion of CFSE-labeled Jurkat cells to recombinant human VCAM-1 (domains 1-3) coated plates, compounds as yielded by solid phase synthesis, purity about 40-90%
Outline: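 CFSE-labelled Jurkat E6-1 cells in Tris buffer pH 7.4 with 2 mM MnCl2 were added to wells coated with insect-cell-expressed human VCAM-1 domains 1-3 (0.5 μg/ml coating solution); labelled cells were incubated for 30 min at 37 °C with the VLA-4 inhibitor.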

T1 sequence (P13612 34-1032): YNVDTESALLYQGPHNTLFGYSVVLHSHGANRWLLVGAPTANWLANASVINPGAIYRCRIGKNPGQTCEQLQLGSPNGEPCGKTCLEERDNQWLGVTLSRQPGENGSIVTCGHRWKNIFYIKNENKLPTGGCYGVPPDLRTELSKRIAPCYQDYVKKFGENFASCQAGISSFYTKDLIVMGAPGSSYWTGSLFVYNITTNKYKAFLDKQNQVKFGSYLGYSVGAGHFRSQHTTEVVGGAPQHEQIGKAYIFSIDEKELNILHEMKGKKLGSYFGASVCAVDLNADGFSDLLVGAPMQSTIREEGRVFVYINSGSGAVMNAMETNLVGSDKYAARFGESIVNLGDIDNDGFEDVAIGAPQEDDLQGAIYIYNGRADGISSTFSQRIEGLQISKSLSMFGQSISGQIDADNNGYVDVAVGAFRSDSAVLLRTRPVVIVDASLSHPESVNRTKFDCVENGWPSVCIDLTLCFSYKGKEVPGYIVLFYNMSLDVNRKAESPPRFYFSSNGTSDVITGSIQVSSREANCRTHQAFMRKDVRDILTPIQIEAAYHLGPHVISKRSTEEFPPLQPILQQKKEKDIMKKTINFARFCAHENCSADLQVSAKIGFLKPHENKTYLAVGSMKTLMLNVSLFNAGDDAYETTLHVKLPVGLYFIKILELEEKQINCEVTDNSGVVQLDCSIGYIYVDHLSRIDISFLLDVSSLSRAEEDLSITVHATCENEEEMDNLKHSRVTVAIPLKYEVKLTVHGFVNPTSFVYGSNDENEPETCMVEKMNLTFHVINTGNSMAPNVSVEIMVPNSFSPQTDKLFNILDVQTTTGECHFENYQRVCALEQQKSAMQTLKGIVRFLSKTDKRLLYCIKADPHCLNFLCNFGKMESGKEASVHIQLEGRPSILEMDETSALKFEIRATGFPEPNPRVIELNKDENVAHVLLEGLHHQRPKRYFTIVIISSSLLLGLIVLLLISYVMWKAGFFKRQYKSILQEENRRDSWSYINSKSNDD
T1 sequence (P05556 21-798): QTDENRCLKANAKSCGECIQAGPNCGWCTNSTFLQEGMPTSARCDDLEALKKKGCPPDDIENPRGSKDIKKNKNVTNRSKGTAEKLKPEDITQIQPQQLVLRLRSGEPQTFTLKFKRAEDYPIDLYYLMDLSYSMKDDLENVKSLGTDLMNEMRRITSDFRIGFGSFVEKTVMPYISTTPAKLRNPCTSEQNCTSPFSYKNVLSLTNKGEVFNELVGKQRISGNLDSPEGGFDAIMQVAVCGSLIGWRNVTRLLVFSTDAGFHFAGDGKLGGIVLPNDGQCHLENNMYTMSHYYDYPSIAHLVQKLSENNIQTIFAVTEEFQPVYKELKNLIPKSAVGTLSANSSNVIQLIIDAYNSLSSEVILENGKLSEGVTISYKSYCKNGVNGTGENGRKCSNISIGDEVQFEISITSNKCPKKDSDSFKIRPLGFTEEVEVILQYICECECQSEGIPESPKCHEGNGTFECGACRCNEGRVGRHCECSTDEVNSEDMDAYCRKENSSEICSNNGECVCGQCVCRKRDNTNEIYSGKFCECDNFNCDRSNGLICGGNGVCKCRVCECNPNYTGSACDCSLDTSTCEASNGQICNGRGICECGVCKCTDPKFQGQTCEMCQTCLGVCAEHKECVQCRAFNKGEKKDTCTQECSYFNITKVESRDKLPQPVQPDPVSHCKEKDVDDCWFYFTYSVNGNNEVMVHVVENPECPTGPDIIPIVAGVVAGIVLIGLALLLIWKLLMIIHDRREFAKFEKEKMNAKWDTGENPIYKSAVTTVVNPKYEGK

IC50 (read-out: IC50) | IC50 | SMILES
500 to 2000 nM |  | CN(Cc1ccccc1)c1ncnc(N2CCCC(C(=O)N[C@@H](Cc3ccc(NC(=O)N4CCOCC4)cc3)C(=O)O)C2)c1F (some centres unmarked) [Example 5.45]
 | C-D | Cc1ccc(-c2ccc(C[C@H](NC(=O)C3CCCN(S(=O)(=O)c4c(Cl)cccc4Cl)C3)C(=O)O)cc2)cc1 (some centres unmarked) [Example 1.69]
2000 to 10000 nM |  | O=C(N[C@@H](Cc1ccc(-c2ccc(Cl)cc2Cl)cc1)C(=O)O)C1CCCN(S(=O)(=O)c2c(Cl)cccc2Cl)C1 (some centres unmarked) [Example 1.97]
500 to 2000 nM |  | COc1ccccc1NC(=O)N1CCCC(C(=O)N[C@@H](Cc2ccc(NC(=O)N3CCOCC3)cc2)C(=O)O)C1 (some centres unmarked) [Example 4.63]
 | C-D | CCCNc1ncnc(N2CCCC(C(=O)N[C@@H](Cc3ccc(-c4ccc(Cl)c(Cl)c4)cc3)C(=O)O)C2)c1F (some centres unmarked) [Example 2.47]
500 to 2000 nM |  | CN1CCN(c2ncnc(N3CCCC(C(=O)N[C@@H](Cc4ccc(NC(=O)N5CCc6ccccc6C5)cc4)C(=O)O)C3)c2F)CC1 (some centres unmarked) [Example 5.40]
≤ 500 nM |  | CN1CCN(C(=O)Nc2ccc(C[C@H](NC(=O)C3CCCN(C(=O)Cc4cccs4)C3)C(=O)O)cc2)CC1 (some centres unmarked) [Example 4.2]
 | B-C | COc1ccccc1-c1ccc(C[C@H](NC(=O)C2CCCN(c3ncnc(NC4Cc5ccccc5C4)c3F)C2)C(=O)O)cc1 (some centres unmarked) [Example 2.56]
500 to 2000 nM |  | O=C(N[C@@H](Cc1ccc(NC(=O)N2CCc3ccccc3C2)cc1)C(=O)O)C1CCCN(C(=O)Nc2ccccc2)C1 (some centres unmarked) [Example 4.60]
2000 to 10000 nM |  | COc1ccccc1-c1ccc(C[C@H](NC(=O)C2CCCN(c3ncnc(N4CCOCC4)c3F)C2)C(=O)O)cc1 (some centres unmarked) [Example 2.53]
500 to 2000 nM |  | COc1ccc(CC(=O)N2CCCC(C(=O)N[C@H](Cc3ccc(NC(=O)N4CCc5ccccc5C4)cc3)C(=O)O)C2)cc1 (some centres unmarked) [Example 4.23]
≤ 500 nM |  | COc1ccccc1C(=O)N1CCCC(C(=O)N[C@@H](Cc2ccc(NC(=O)N3CCN(c4ccccc4)CC3)cc2)C(=O)O)C1 (some centres unmarked) [Example 4.14]
 | C-D | Cc1ccc(-c2ccc(C[C@H](NC(=O)C3CCCN(C(=O)Cc4ccccc4)C3)C(=O)O)cc2)cc1 (some centres unmarked) [Example 1.17]
 | C-D | Cc1ccc(-c2ccc(C[C@H](NC(=O)C3CCCN(C(=O)C4CCCCC4)C3)C(=O)O)cc2)cc1 (some centres unmarked) [Example 1.21]
 | C-D | COC(=O)c1ccccc1S(=O)(=O)N1CCCC(C(=O)N[C@@H](Cc2ccc(-c3ccccc3)cc2)C(=O)O)C1 (some centres unmarked) [Example 1.57]
 | C-D | Cc1ccc(-c2ccc(C[C@H](NC(=O)C3CCCN(S(=O)(=O)c4ccc5ccccc5c4)C3)C(=O)O)cc2)cc1 (some centres unmarked) [Example 1.68]
500 to 2000 nM |  | Cc1ccc(S(=O)(=O)N2CCCC(C(=O)N[C@@H](Cc3ccc(-c4ccccc4)cc3)C(=O)O)C2)cc1 (some centres unmarked) [Example 1.56]
 | C-D | COc1ccccc1C(=O)N1CCCC(C(=O)N[C@@H](Cc2ccc(-c3ccccc3)cc2)C(=O)O)C1 (some centres unmarked) [Example 1.14]
2000 to 10000 nM |  | O=C(N[C@@H](Cc1ccc(-c2cc(Cl)ccc2Cl)cc1)C(=O)O)C1CCCN(C(=O)c2ccccc2Cl)C1 (some centres unmarked) [Example 1.54]
≤ 500 nM |  | O=C(N[C@@H](Cc1ccc(NC(=O)N2CCOCC2)cc1)C(=O)O)C1CCCN(S(=O)(=O)c2cccs2)C1 (some centres unmarked) [Example 4.42]
 | C-D | O=C(N[C@@H](Cc1ccc(-c2ccc(Cl)cc2Cl)cc1)C(=O)O)C1CCCN(S(=O)(=O)c2cc(Cl)cc(Cl)c2)C1 (some centres unmarked) [Example 1.102]
500 to 2000 nM |  | CN1CCN(C(=O)Nc2ccc(C[C@H](NC(=O)C3CCCN(C(=O)Nc4ccccc4F)C3)C(=O)O)cc2)CC1 (some centres unmarked) [Example 4.57]
2000 to 10000 nM |  | Cc1ccc(C(=O)N2CCCC(C(=O)N[C@@H](Cc3ccc(-c4ccccc4C)cc3)C(=O)O)C2)cc1 (some centres unmarked) [Example 1.32]
500 to 2000 nM |  | COc1ccccc1-c1ccc(C[C@H](NC(=O)C2CCCN(c3ncnc(NCc4ccccn4)c3F)C2)C(=O)O)cc1 (some centres unmarked) [Example 2.51]
≤ 500 nM |  | O=C(N[C@@H](Cc1ccc(NC(=O)N2CCOCC2)cc1)C(=O)O)C1CCCN(C(=O)Cc2cccs2)C1 (some centres unmarked) [Example 4.25]
 | C-D | Cc1ccccc1-c1ccc(C[C@H](NC(=O)C2CCCN(c3ncnc(NCCN4CCCC4)c3F)C2)C(=O)O)cc1 (some centres unmarked) [Example 2.32]
